Consider 2 molecules from patent US10047031B2, “Organic compounds” (GIVAUDAN SA, priority 2014, dated 2018).

In one data set the test system is rat hepatocytes. Put plainly: in vitro metabolism in rat hepatocytes in suspension (GC-MS). It is filed as in vitro ADME. The note with it: incubated with hepatocytes isolated from rats, 'substantially no' = below limit of detection, i.e. <1%. From the text: Decrease of Lilial™ and the compound released by the precursor of the present invention, and formation of the corresponding benzoic acid derivative may be analysed by GC-MS.
By “substantially no benzoic acid derivative” is meant that the concentration of said derivative is below the limit of detection, i.e. <1%. As such, the precursor releasing the compound of formula (I) provides perfumers with an eminently suitable surrogate for the valuable yet problematic Lilial™.

The test system of another data set is primates. The note with it: cited from earlier work.
For the next data set, the system named is mice. The note with it: mouse, in vivo; cited from earlier work.
The test system of the next data set is guinea-pigs. The settings on record: guinea pig, in vivo; cited from earlier work.

As for `Cc1cc(CC(C)C)ccc1CCC=O` [compound of formula (I), 3-(4-isobutyl-2-methylphenyl)propanal], the “enzymatic degradation to / formation of the corresponding benzoic acid derivative” value in the data set on rat hepatocytes is given as “no, or substantially no”; in the data set with rat hepatocytes (listed as compound released by the precursor of the present invention), “not susceptible”.

With `CC(C=O)Cc1ccc(C(C)(C)C)cc1` (centres unmarked) [Lilial™, 3-(4-tert-butylphenyl)-2-methylpropanal], the “effects (reproductive toxicity)” value with primates, with mice and in the data set with guinea-pigs was “No effects” each time.
